Calls of active or inactive are those of the source. The calls are words filed in the database; no cut-off is given here.
Target: T1, Acetylcholinesterase (Rattus norvegicus, UniProt P37136)
T1 sequence (P37136 whole entry): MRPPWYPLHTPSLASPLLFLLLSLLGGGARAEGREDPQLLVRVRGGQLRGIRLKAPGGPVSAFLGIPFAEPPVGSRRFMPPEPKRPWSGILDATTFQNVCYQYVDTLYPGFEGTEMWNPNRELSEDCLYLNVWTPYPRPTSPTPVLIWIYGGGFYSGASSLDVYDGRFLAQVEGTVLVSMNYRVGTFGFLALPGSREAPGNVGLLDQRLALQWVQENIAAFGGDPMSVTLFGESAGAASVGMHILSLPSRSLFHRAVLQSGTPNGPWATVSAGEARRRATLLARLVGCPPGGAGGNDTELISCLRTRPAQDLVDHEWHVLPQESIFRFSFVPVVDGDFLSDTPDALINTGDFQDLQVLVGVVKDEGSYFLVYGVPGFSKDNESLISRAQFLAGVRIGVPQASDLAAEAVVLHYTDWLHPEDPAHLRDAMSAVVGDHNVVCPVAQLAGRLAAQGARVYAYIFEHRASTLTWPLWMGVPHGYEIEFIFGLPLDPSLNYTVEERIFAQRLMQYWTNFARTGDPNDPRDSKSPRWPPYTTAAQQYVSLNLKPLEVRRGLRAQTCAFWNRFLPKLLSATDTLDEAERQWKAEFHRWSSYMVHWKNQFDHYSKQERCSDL
Assay: Inhibition of rat cortex homogenate acetylcholinesterase using acetylthiocholine iodide as substrate incubated for 20 mins by Ellman's method
Format: tissue-based
Settings: not given

SMILES	IC50 [nM]
COc1cc2c(cc1OCC1CC1)C(=O)C(CC1(F)CCN(Cc3ccc(F)cc3F)CC1)C2 (stereo not given)	4.59
COc1cc2c(cc1OC)C(=O)C(CC1(F)CCN(Cc3ccc(F)c(F)c3F)CC1)C2 (stereo not given)	75.7
CCCOc1cc2c(cc1OCCC)C(=O)C(CC1(F)CCN(Cc3cccc(F)c3)CC1)C2 (stereo not given)	176
CCCOc1cc2c(cc1OCCC)C(=O)C(CC1(F)CCN(Cc3ccccc3F)CC1)C2 (stereo not given)	66.7
CCCCOc1cc2c(cc1OCCCC)C(=O)C(CC1(F)CCN(Cc3cccc(F)c3)CC1)C2 (stereo not given)	646
COc1ccc2c(c1)C(=O)C(CC1(F)CCN(Cc3ccc(F)cc3)CC1)C2 (stereo not given)	260
COc1cc2c(cc1OC)C(=O)C(CC1(F)CCN(CCc3cccc(F)c3)CC1)C2 (stereo not given)	59
COc1cc2c(cc1OC)C(=O)C(CC1(F)CCN(Cc3cc(F)cc(F)c3F)CC1)C2 (stereo not given)	306
CCCCOc1cc2c(cc1OCCCC)C(=O)C(CC1(F)CCN(Cc3ccccc3F)CC1)C2 (stereo not given)	181
COc1cc2c(cc1OC)C(=O)C(CC1(F)CCN(Cc3ccc(F)cc3F)CC1)C2 (stereo not given)	8.33
COc1cc2c(cc1F)C(=O)C(CC1(F)CCN(Cc3cccc(F)c3)CC1)C2 (stereo not given)	3.71
COc1cc2c(cc1OC)C(=O)C(CC1(F)CCN(Cc3cccc(F)c3)CC1)C2 (stereo not given)	3
COc1cc2c(cc1F)CC(CC1(F)CCN(Cc3ccc(F)cc3)CC1)C2=O (stereo not given)	28.3
COc1cc2c(cc1OCC1CC1)C(=O)C(CC1(F)CCN(Cc3cccc(F)c3)CC1)C2 (stereo not given)	5.87
COc1cc2c(cc1OC)C(=O)C(CC1(F)CCN(CCc3ccc(F)cc3)CC1)C2 (stereo not given)	404
COc1cc2c(cc1OC)C(=O)C(CC1(F)CCN(Cc3cccc(C#N)c3)CC1)C2 (stereo not given)	67.3

SMILES	IC50 [nM]
COc1ccc2c(c1)C(=O)C(CC1(F)CCN(Cc3ccccc3F)CC1)C2 (stereo not given)	60.5
COc1ccc2c(c1)CC(CC1(F)CCN(Cc3ccccc3F)CC1)C2=O (stereo not given)	6.29
COc1cc2c(cc1F)C(=O)C(CC1(F)CCN(Cc3ccc(F)cc3)CC1)C2 (stereo not given)	3.44
COc1cc2c(cc1OC)C(=O)C(CC1(F)CCN(Cc3ccccc3C#N)CC1)C2 (stereo not given)	163
COc1cc2c(cc1OC)C(=O)C(CC1(F)CCN(Cc3cc(F)cc(F)c3)CC1)C2 (stereo not given)	226
COc1cc2c(cc1OC)C(=O)C(CC1(F)CCN(Cc3ccccc3C(F)(F)F)CC1)C2 (stereo not given)	1640
COc1cc2c(cc1OC)C(=O)C(CC1(F)CCN(Cc3cccc(C(F)(F)F)c3)CC1)C2 (stereo not given)	348
CCCOc1cc2c(cc1OC)CC(CC1(F)CCN(Cc3ccc(F)cc3)CC1)C2=O (stereo not given)	18.3
COc1cc2c(cc1OC)C(=O)C(CC1(F)CCN(Cc3cccc(C)c3)CC1)C2 (stereo not given)	11.7
CCCOc1cc2c(cc1OC)CC(CC1(F)CCN(Cc3ccccc3F)CC1)C2=O (stereo not given)	25.3
COc1ccc2c(c1)CC(CC1(F)CCN(Cc3cccc(F)c3)CC1)C2=O (stereo not given)	14.1
COc1cc2c(cc1OCC1CC1)C(=O)C(CC1(F)CCN(Cc3ccc(F)cc3)CC1)C2 (stereo not given)	5.39
COc1cc2c(cc1F)C(=O)C(CC1(F)CCN(Cc3ccccc3F)CC1)C2 (stereo not given)	3.52
COc1cc2c(cc1F)CC(CC1(F)CCN(Cc3cccc(F)c3)CC1)C2=O (stereo not given)	44.9
COc1cc2c(cc1F)CC(CC1(F)CCN(Cc3ccccc3F)CC1)C2=O (stereo not given)	22.5

Target: T2, Acetylcholinesterase (Rattus norvegicus) (UniProt P37136)
T2 sequence (whole entry): T1 sequence (P37136 whole entry)
Assay: Inhibition of rat cortex homogenate acetylcholinesterase at 40 uM using acetylthiocholine iodide as substrate incubated for 20 mins by Ellman's method relative to control
Format: tissue-based
Settings: not given

SMILES	inhibition [%]
COc1cc2c(cc1OCC1CC1)C(=O)C(CC1(F)CCN(Cc3ccccc3F)CC1)C2 (stereo not given)	8.4
COc1cc2c(cc1OC)C(=O)C(CC1(F)CCN(Cc3ccc(OC(F)(F)F)cc3)CC1)C2 (stereo not given)	51.7
COc1cc2c(cc1OC)C(=O)C(CC1(F)CCN(Cc3ccc(C(C)(C)C)cc3)CC1)C2 (stereo not given)	69.1
COc1cc2c(cc1OC)C(=O)C(CC1(F)CCN(Cc3ccc(C(F)(F)F)cc3)CC1)C2 (stereo not given)	75.3
COc1cc2c(cc1OC)C(=O)C(CC1(F)CCN(CCc3ccccc3F)CC1)C2 (stereo not given)	74.7

Target: Acetylcholinesterase (Homo sapiens, UniProt P22303)
Assay: Binding affinity to CM5 sensor chip immobilized recombinant human AChE assessed as dissociation constant at 298.15 K by surface plasmon resonance assay
Settings: not given

Chain of Acetylcholinesterase (Homo sapiens, UniProt P22303) (P22303 whole entry): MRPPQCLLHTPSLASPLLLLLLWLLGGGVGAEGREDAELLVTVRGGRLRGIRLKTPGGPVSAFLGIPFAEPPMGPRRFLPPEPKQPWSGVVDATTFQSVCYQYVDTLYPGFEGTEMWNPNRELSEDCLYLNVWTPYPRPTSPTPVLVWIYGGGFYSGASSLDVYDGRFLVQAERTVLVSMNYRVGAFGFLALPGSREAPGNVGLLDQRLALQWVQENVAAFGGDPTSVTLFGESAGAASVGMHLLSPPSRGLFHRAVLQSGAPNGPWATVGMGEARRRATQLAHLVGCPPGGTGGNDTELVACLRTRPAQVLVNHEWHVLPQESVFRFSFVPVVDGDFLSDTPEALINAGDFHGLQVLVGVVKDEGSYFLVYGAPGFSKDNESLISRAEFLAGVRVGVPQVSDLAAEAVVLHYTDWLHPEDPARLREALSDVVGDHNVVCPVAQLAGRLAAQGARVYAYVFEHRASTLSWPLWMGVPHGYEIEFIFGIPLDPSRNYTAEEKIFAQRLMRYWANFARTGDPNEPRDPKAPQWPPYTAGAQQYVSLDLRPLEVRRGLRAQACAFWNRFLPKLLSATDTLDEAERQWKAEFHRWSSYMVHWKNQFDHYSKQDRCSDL

SMILES	Kd [nM]
C/C=C1\[C@H]2C=C(C)C[C@]1(N)c1ccc(=O)[nH]c1C2 [HUPERZINE A]	17
COc1cc2c(cc1OC)C(=O)C(CC1(F)CCN(Cc3cc(F)c(F)cc3F)CC1)C2 (stereo not given)	5.23
COc1cc2c(cc1OC)C(=O)C(CC1(F)CCN(Cc3ccc(F)cc3F)CC1)C2 (stereo not given)	3.47
COc1cc2c(cc1OC)C(=O)C(CC1(F)CCN(Cc3cccc(F)c3)CC1)C2 (stereo not given)	5.02
COc1cc2c(cc1OC)C(=O)C(CC1(F)CCN(Cc3ccc(F)cc3)CC1)C2 (stereo not given)	2.78
COc1cc2c(cc1OC)C(=O)C(CC1(F)CCN(Cc3ccccc3)CC1)C2 (stereo not given)	4.61

Test system: Mus musculus
Assay: Cognitive enhancing effect in mouse model of scopolamine-induced memory impairment assessed as reduction in escape latency time at 8 to 12 mg/kg, IG QD for 3 days by channel water maze test
Format: functional, organism-based
Settings: dose 8-12 mg/kg, time 3.0 day

SMILES	Activity
COc1cc2c(cc1OC)C(=O)C(CC1CCN(Cc3ccccc3)CC1)C2 (stereo not given)	Active

Test system: Mus musculus
Assay: Cognitive enhancing effect in mouse model of scopolamine-induced memory impairment assessed as reduction in number of errors at 8 to 12 mg/kg, IG QD for 3 days by channel water maze test
Format: functional, organism-based
Settings: dose 8-12 mg/kg, time 3.0 day

SMILES	Activity
COc1cc2c(cc1OC)C(=O)C(CC1CCN(Cc3ccccc3)CC1)C2 (stereo not given)	Active

Test system: not listed separately
Assay: Solubility of the compound
Format: physicochemical
Settings: not given

SMILES	solubility
COc1cc2c(cc1OC)C(=O)C(CC1(F)CCN(Cc3c(F)c(F)c(F)c(F)c3F)CC1)C2 (stereo not given)	Insoluble
